The results in this text go back to article PMC4826283 (Journal of nuclear medicine : official publication, Society …, 2014).

The subject of this assay is kappa opioid receptor (KOR). Briefly: in vivo PET receptor occupancy. The format is cell-based, Macaca mulatta. The following applies: rhesus monkey, brain.

For `Cc1cc(C)cc([C@@H]2CCCN2Cc2ccc(Oc3ccc(C(N)=O)cc3F)cc2)c1` [LY2456302], the “% occupancy at 0.3 mg/kg” value is 93 % occupancy at 0.3 mg/kg.
